“Also recorded” adds a separate entry of the source.
Tests used:
[1] = test system: bone marrow-derived MSCs (lack matriptase expression); test: Tolerance of bone marrow-derived mesenchymal stromal cells (cell count); type: cell-based, human; details: 5 nM, 4 days
Procedure: Cell numbers were determined by Vi-Cell counter.
Human bone marrow-derived MSCs, which lack matriptase expression, were used as a control to determine the cytotoxic selectivity of M24-DOX as shown in FIG. 4 where bone marrow-derived mesenchymal stromal cells (5×10^4/well, 24-well plates) were treated with M24-DOX or free DOX at varying concentrations for 4 days. Cell numbers were determined by Vi-Cell counter.

[2] = test system: breast tumors (MDA-MB468); test: Human breast xenograft tumor model, M69-DOX; type: in vivo, NOD/SCID mice; details: 2 mg/kg
Procedure: FIG. 8 illustrates the M69-DOX conjugate targeting active matriptase inhibited breast tumor growth in vivo, comparing treatment by M69-DOX at 10 mg/Kg and 20 mg/Kg doses with treatment by DOX at 2 mg/Kg dose and the control.
FIG. 9 illustrates reduction of the tumor weight by M69-DOX at 10 mg/Kg and 20 mg/Kg doses in comparison with treatment by DOX at 2 mg/Kg dose and the control.
To assess the efficacy of M69-DOX to suppress tumor growth in vivo, a human breast xenograft tumor model was used. NOD/SCID mice bearing breast tumors (MDA-MB468) were treated twice weekly with M69-DOX at either 20 or 10 mg/kg, as well as treated with DOX at 2 mg/kg. […] As a single mAb was attached with 7 molecules of DOX, a dose at 10 mg/kg of M69-DOX is equivalent to […] of DOX administered.
Reduced Weights of Tumor Masses in Mice Treated with M69-DOX. At the end of the treatment course, the tumor masses were collected from the experimental mice, and were weighed. The average weights of tumors from the groups treated with M69-DOX at either dose as well as treated with DOX were reduced to about 50% of the one from the untreated control group (FIG. 9). Significant reduction in tumor weights by M69-DOX further confirms the efficacy of site-directed delivery of DOX to tumor cells expressing activated matriptase.

[3] = test system: PC-3 prostate carcinoma; details: PC-3 xenograft; cited from earlier work
[4] = test system: MM cells; test: MM cell proliferation, DOX-conjugates alone and combined with thalidomide; type: cell-based; details: thalidomide alone
Description: FIGS. 6A and B illustrate that thalidomide sensitizes MM cells to M69-DOX, but not M24-DOX: (A) comparison of treatment of MM cells by M69-DOX alone with the M69-DOX/thalidomide combination treatment; and (B) comparison of treatment of MM cells by M24-DOX alone with the M24-DOX/thalidomide combination treatment.
Thalidomide is a therapeutic for multiple myeloma treatment, and the combination of thalidomide and dexamethasone is one of the most common regimens for treatment of patients with multiple myeloma, with an response rate of up to 60-70% (Denz, U., Eur. J. Cancer., 2006, 42:1591-1600; Gieseler, F., et al., Thromb. Haemost., 2008, 99: 1001-1007). The efficacy of both DOX-conjugates in combination with current MM therapeutics such as thalidomide was tested.

[5] = test system: matriptase; test: Matriptase activation in MM cells (Western analysis with mAb M69); type: cell-based, human; details: 24-hour treatment, 50 μM
Procedure: (§1) FIG. 5 illustrates activation of matriptase in MM cells induced by thalidomide. MM cells (MM.1S) were treated with varying concentrations of thalidomide as indicated for 24 hours followed by Western analyses to detect the activation of matriptase using a specific monoclonal antibody (M69) to the active form of the enzyme. […] GAPDH served as control.
as §1, with “7” for “5”
To examine the increase in cytotoxicity that resulted with the thalidomide and M69-DOX conjugate we measured the effect of thalidomide on expression of activated matriptase.

COc1cccc2c1C(=O)c1c(O)c3c(c(O)c1C2=O)C[C@@](O)(C(=O)CO)C[C@@H]3OC1CC(N)C(O)C(C)O1 (stereo partly drawn) [DOX, (8S,10S)-10-(4-amino-5-hydroxy-6-methyl-tetrahydro-2H-pyran-2-yloxy)-6,8,11-trihydroxy-8-(2-hydroxyacetyl)-1-methoxy-7,8,9,10-tetrahydrotetracene-5,12-dione]
effect on MSC proliferation [1]: significantly inhibit cell proliferation | tumor growth [2]: significantly abolished | average weights of tumors relative to untreated control group ([2]; end of treatment): about 50%

ecotin: matriptase inhibitor
tumor growth and metastasis formation [3]: Reduced tumor growth and metastasis formation

O=C1CCC(N2C(=O)c3ccccc3C2=O)C(=O)N1 (stereo not drawn) [thalidomide]
effect on MM cell proliferation [4]: no effect on MM cell proliferation; also recorded: little effect on the cell proliferation of MM cells | activation of matriptase in MM cells [5]: markedly enhanced

From patent US11752215B2, “Targeting tumor cells with chemotherapeutic agents conjugated to anti-matriptase antibodies by in vivo cleavable linking moieties” (priority 2016, dated 2023)
